The target of one test is T1, recombinant human cIAP-1 (Homo sapiens, UniProt Q13490).
T1 construct: purchased R&D Systems 818-IA
T1 sequence (Q13490 whole entry): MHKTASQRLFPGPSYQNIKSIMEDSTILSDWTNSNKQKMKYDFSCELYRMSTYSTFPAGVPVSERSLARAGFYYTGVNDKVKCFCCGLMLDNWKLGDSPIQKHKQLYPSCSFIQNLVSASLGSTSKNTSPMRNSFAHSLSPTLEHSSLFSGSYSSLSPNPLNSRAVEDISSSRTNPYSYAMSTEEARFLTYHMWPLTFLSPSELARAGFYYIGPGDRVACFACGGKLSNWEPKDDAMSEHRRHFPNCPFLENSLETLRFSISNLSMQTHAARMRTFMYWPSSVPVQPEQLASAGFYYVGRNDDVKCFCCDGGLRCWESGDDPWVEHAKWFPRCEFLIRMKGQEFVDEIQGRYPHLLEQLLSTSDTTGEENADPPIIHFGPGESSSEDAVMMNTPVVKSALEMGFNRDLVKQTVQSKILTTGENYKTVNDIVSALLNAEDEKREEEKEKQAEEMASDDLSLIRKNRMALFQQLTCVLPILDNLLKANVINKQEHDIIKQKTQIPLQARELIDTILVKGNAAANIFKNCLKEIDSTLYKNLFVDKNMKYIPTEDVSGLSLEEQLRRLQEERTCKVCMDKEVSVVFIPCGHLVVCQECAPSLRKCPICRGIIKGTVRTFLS
In words: Fluorescence polarization competition binding assay, cIAP-1. The following applies: c-IAP-1, 3 h. Here is the method:
Homogeneous, Fluorescence Polarization, Competition Binding Assay Protocol for Affinity Assessment of Compound Binding to XIAP, cIAP-1 and ML-IAPβ BIR3 Domains
1× stocks of recombinant human XIAP; BIR3 domain (895-XB), recombinant human cIAP-1 (818-IA) or recombinant human ML-IAPβ (818-IA) from R&D Systems and Fluorescence Polarization (FP) assay tracer (Atto-647 tagged IAP inhibitor probe compound) were prepared in assay buffer consisting of 25 mM Tris-HCL, pH 7.5 (Sigma), 10 mM […] (Sigma), 1 mM DTT (Fluka) and 0.005% TritonX-100 (Pierce). While IAP protein and tracer equilibrated at ambient temp in the dark (30-60 min), 100× stocks of test compound were prepared in 50% DMSO:H2O, serially diluted and spotted (0.5 µL/well) in duplicate wells of a 384-well, flat bottom, polypropylene, black assay plate (Greiner #781209). […] Competition binding between test compounds and assay tracer was initiated by the addition of 50 µL/well of pre-equilibrated IAP protein and assay tracer. Displacement of the assay tracer was measured in a Synergy plate reader from BioTek (Winooski, Vt.) at λex620/λem680 through a 660 nm half-sized dicroich mirror and S/P polarizing filters every 30 min for 3 hr. (See Huang, X., Journal of Biomolecular Screening 8, 2003). The resulting compound dose response data were fit to a one-site binding Ki model in GraphPad Prism from GraphPad Software (San Diego, Calif.).
A general note: Fluorescence polarisation rises when a labelled molecule tumbles more slowly, as on binding a larger partner.
One may read the Ki as a measure of affinity in units of concentration, obtained from inhibition or displacement. Consider `CN[C@@H](C)C(=O)N[C@H]1CCCC[C@H]2CC[C@@H](C(=O)NCc3cccc(NC(=O)[C@@H]4CCC(=O)O4)c3)N2C1=O` [VII-3], for which the Ki fell in the range of 100 to 1000 nM. `CN[C@@H](C)C(=O)N[C@H]1CCCC[C@H]2CC[C@@H](C(=O)NCc3cccc(NC(=O)[C@@H]4CC(=O)N4)c3)N2C1=O` [VII-4]: the Ki was 100 to 1000 nM. Consider `CN[C@@H](C)C(=O)N[C@H]1CCCC[C@H]2CC[C@@H](C(=O)NCc3cccc(Nc4c(OC(C)C)c(=O)c4=O)c3)N2C1=O` [VII-5], for which the Ki lay in the range of 100 to 1000 nM. Take `CN[C@@H](C)C(=O)N[C@H]1CCCC[C@H]2CC[C@@H](C(=O)NCc3cccc(NC(=O)CC(C)=O)c3)N2C1=O` [VII-6]: the Ki was 10 to 100 nM.

`CC(=O)C(C(C)=O)c1cccc(CNC(=O)[C@@H]2CC[C@@H]3CCCC[C@H](NC(=O)[C@H](C)N(C)C(=O)OC(C)(C)C)C(=O)N32)c1` [VII-7, tert-butyl(S)-1-((3S,6S,10aS)-3-(3-(2,4-dioxopentan-3-yl)benzylcarbamoyl)-5-oxodecahydropyrrolo[1,2-a]azocin-6-ylamino)-1-oxopropan-2-yl(methyl)carbamate]: the Ki was > 10000 nM. The same measure, in the same setting: as for `CN[C@@H](C)C(=O)N[C@H]1CCCC[C@H]2CC[C@@H](C(=O)NCc3cccc(C(C(C)=O)C(C)=O)c3)N2C1=O` [VII-8], the figure is 100 to 1000 nM; as for `CN[C@@H](C)C(=O)N[C@H]1CCCC[C@H]2CC[C@@H](C(=O)NCc3cccc(NC(=O)CC(=O)C(F)(F)F)c3)N2C1=O` [VII-9], 100 to 1000 nM; as for `CN[C@@H](C)C(=O)N[C@H]1CCCC[C@H]2CC[C@@H](C(=O)NCc3cccc(NC(=O)/C=C/CN(C)C)c3)N2C1=O` [VII-10], 100 to 1000 nM.

Regarding `C=C(C)C(=O)Nc1cccc(CNC(=O)[C@@H]2CC[C@@H]3CCCC[C@H](NC(=O)[C@H](C)NC)C(=O)N32)c1` [VII-11], the Ki was 100 to 1000 nM. On to `CN[C@@H](C)C(=O)N[C@H]1CCCC[C@H]2CC[C@@H](C(=O)NCc3cccc(NC(=O)C=C(C)C)c3)N2C1=O` [VII-12], for which the Ki is 10 to 100 nM. Regarding `CN[C@@H](C)C(=O)N[C@H]1CCCC[C@H]2CC[C@@H](C(=O)NCc3cccc(C(=O)N[C@H]4CCOC4=O)c3)N2C1=O` [VII-13, (3S,6S,10aS)-6-((S)-2-(methylamino)propanamido)-5-oxo-N-(3-((S)-2-oxotetrahydrofuran-3-ylcarbamoyl)benzyl)decahydropyrrolo[1,2-a]azocine-3-carboxamide], the Ki was in the range of 100 to 1000 nM. Consider `CN[C@@H](C)C(=O)N[C@H]1CCCC[C@H]2CC[C@@H](C(=O)NCc3cccc(C(=O)OC4C(=O)OCC4(C)C)c3)N2C1=O` (stereo partly shown) [VII-14], for which the Ki is 1000 to 10000 nM. On the same count and under the same terms, next, `CN[C@@H](C)C(=O)N[C@H]1CCCC[C@H]2CC[C@@H](C(=O)NCc3cccc(C(=O)OC4CCOC4=O)c3)N2C1=O` (stereo partly shown) [VII-15]: 100 to 1000 nM; `CN[C@@H](C)C(=O)N[C@H]1CCCC[C@H]2CC[C@@H](C(=O)NCc3cccc(OC4CCOC4=O)c3)N2C1=O` (stereo partly shown) [VII-17]: 100 to 1000 nM. The same measure, in the same setting: next, `C=CC(=O)NCc1cccc(CNC(=O)[C@@H]2CC[C@@H]3CCCC[C@H](NC(=O)[C@H](C)NC)C(=O)N32)c1` [VII-18]: 100 to 1000 nM; `CN[C@@H](C)C(=O)N[C@H]1CCCC[C@H]2CC[C@@H](C(=O)NCc3cccc(C(=O)C=C(C)C)c3)N2C1=O` [VII-19]: 10 to 100 nM; `CN[C@@H](C)C(=O)N[C@H]1CCCC[C@H]2CC[C@@H](C(=O)NCc3cccc(C(=O)N4C[C@@H]5C[C@H]4C(=O)O5)c3)N2C1=O` [VII-20, (3S,6S,10aS)-6-((S)-2-(methylamino)propanamido)-5-oxo-N-(3-((1S,4S)-3-oxo-2-oxa-5-azabicyclo[2.2.1]heptane-5-carbonyl)benzyl)decahydropyrrolo[1,2-a]azocine-3-carboxamide]: 100 to 1000 nM.

On to `CN[C@@H](C)C(=O)N[C@H]1CCCC[C@H]2CC[C@@H](C(=O)NCc3cccc(C(=O)N[C@@H]4COC(=O)C4)c3)N2C1=O` [VII-22], for which the Ki is 100 to 1000 nM. As to `CN[C@@H](C)C(=O)N[C@H]1CCCC[C@H]2CC[C@@H](C(=O)NCc3cccc(NC(=O)C45CC[C@@](C)(C(=O)O4)C5(C)C)c3)N2C1=O` [VII-24], the Ki fell in the range of 100 to 1000 nM. `CN[C@@H](C)C(=O)N[C@H]1CCCC[C@H]2CC[C@@H](C(=O)NCc3cccc(C(=O)N4C[C@H]5C[C@@H]4C(=O)O5)c3)N2C1=O` [VII-25]: the Ki fell in the range of 100 to 1000 nM. Same read-out and setting: next, `CN[C@@H](C)C(=O)N[C@H]1CCCC[C@H]2CC[C@@H](C(=O)NCc3cccc(NC(=O)C45CC[C@](C)(C(=O)O4)C5(C)C)c3)N2C1=O` [VII-26]: 100 to 1000 nM; `CN[C@@H](C)C(=O)N[C@H]1CCCC[C@H]2CC[C@@H](C(=O)NCc3cccc(C(=O)N[C@@H]4CCOC4=O)c3)N2C1=O` [VII-27]: 100 to 1000 nM. Still for that read-out and setting: as for `CN[C@@H](C)C(=O)N[C@H]1CCCC[C@H]2CC[C@@H](C(=O)NCc3cccc(C(=O)N4CCOC(=O)C4)c3)N2C1=O` [VII-31], the figure is 100 to 1000 nM; as for `CN[C@@H](C)C(=O)N[C@H]1CCCC[C@H]2CC[C@@H](C(=O)NCc3cccc(CNC(=O)[C@@H]4CCC(=O)O4)c3)N2C1=O` [VII-32], 100 to 1000 nM; as for `CN[C@@H](C)C(=O)N[C@H]1CCCC[C@H]2CC[C@@H](C(=O)NCc3cccc(CNC(=O)[C@H]4CCC(=O)O4)c3)N2C1=O` [VII-33], 1000 to 10000 nM. On the same count and under the same terms, next, `CN[C@@H](C)C(=O)N[C@H]1CCCC[C@H]2CC[C@@H](C(=O)NCc3cccc(NC(=O)C4(C(C)=O)CC4)c3)N2C1=O` [VII-34]: 100 to 1000 nM; `CN[C@@H](C)C(=O)N[C@H]1CCCC[C@H]2CC[C@@H](C(=O)NCc3cccc(NC(=O)[C@@H]4CCC(=O)N4)c3)N2C1=O` [VII-38]: 1000 to 10000 nM. `CN[C@@H](C)C(=O)N[C@H]1CCCC[C@H]2CC[C@@H](C(=O)NCc3cccc(NC(=O)[C@H]4CCC(=O)N4)c3)N2C1=O` [VII-39]: the inhibition constant Ki was in the range of 100 to 1000 nM. The same measure, in the same setting: next, `CN[C@@H](C)C(=O)N[C@H]1CCCC[C@H]2CC[C@@H](C(=O)NCc3cccc(C(=O)NC[C@H]4CCC(=O)O4)c3)N2C1=O` [VII-41]: 100 to 1000 nM; `CN[C@@H](C)C(=O)N[C@H]1CCCC[C@H]2CC[C@@H](C(=O)NCc3cccc(C(=O)NC[C@@H]4CCC(=O)O4)c3)N2C1=O` [VII-42]: 100 to 1000 nM.

For `CN[C@@H](C)C(=O)N[C@H]1CCCC[C@H]2CC[C@@H](C(=O)NCc3cccc(NC(=O)C4CCOC4=O)c3)N2C1=O` (stereo partly shown) [VII-44], the Ki fell in the range of 100 to 1000 nM. For `CN[C@@H](C)C(=O)N[C@H]1CCCC[C@H]2CC[C@@H](C(=O)NCc3cccc(NC(=O)C4COC(=O)C4)c3)N2C1=O` (stereo partly shown) [VII-45], the Ki lay in the range of 1000 to 10000 nM. For `CN[C@@H](C)C(=O)N[C@H]1CCCC[C@H]2CC[C@@H](C(=O)NCc3cccc(NC(=O)C4CCCC(=O)O4)c3)N2C1=O` (stereo partly shown) [VII-46], the Ki lay in the range of 100 to 1000 nM. As for `CN[C@@H](C)C(=O)N[C@H]1CCCC[C@H]2CC[C@@H](C(=O)NCc3cccc(C(=O)N4CCC5C[C@H]4C(=O)O5)c3)N2C1=O` [VII-47], the Ki lay within 1000 to 10000 nM.

Regarding `CN[C@@H](C)C(=O)N[C@H]1CCCC[C@H]2CC[C@@H](C(=O)NCc3cccc(C(=O)N4CCC5CC4C(=O)O5)c3)N2C1=O` (stereo partly shown) [VII-48], the Ki lay within 100 to 1000 nM.

For a further test, the target named is T2, p120γ (PI3Kγ) (Homo sapiens, UniProt P48736).
T2 construct: purchased BPS Bioscience 40625
T2 sequence (P48736 whole entry): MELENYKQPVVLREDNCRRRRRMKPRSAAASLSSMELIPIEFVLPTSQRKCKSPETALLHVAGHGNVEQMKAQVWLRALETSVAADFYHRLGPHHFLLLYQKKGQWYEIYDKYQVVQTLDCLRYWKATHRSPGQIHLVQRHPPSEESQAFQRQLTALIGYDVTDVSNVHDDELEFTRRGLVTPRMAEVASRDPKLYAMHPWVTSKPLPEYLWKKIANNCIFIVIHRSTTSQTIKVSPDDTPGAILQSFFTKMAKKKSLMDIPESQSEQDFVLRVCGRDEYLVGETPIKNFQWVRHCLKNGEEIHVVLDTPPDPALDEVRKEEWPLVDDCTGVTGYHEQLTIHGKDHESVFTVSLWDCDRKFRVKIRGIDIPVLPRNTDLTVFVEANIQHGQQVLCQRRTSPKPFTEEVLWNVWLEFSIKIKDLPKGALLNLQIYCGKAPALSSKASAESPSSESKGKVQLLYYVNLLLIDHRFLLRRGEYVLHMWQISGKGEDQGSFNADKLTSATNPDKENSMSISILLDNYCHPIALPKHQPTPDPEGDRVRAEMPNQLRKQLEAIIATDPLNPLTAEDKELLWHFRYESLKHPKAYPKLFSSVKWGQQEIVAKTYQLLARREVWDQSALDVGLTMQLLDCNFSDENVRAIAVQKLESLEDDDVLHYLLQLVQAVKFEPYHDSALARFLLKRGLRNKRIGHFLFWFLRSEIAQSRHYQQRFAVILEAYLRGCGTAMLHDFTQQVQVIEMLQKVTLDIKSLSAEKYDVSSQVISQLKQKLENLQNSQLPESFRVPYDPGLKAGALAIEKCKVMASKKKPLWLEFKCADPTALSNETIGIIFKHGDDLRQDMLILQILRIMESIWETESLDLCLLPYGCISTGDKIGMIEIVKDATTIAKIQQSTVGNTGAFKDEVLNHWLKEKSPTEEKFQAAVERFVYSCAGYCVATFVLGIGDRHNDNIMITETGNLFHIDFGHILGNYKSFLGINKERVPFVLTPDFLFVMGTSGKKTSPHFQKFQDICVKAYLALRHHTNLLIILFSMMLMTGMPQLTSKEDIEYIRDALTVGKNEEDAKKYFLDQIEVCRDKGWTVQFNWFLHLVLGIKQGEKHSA
Put plainly: HTRF assay, p120γ. As to conditions: PI3Kγ; read-out: PI3Kγ HTRF IC50 Inhibition Designation. In kind it is biochemical. From the text: The protocol below describes an end-point, competition-binding HTRF assay used to measure inherent potency of test compounds against active p110α/p85α, p110β/p85α, p120γ enzymes. The mechanics of the assay platform are best described by the vendor (Millipore, Billerica, Mass.) on their website at the following URL: http://www.millipore.com/coa/tech1/74jt4z.
Briefly, Stop solution (Stop A, #33-007 and Stop B, #33-009; 3:1 ratio) and Detection Mix (DMC, #33-015 with DMA, #33-011 and DMB, #33-013; 18:1:1 ratio) were prepared as recommended by the manufacturer ˜2 hrs prior to use. Additionally, 1× reaction buffer (4× buffer stock #33-003), a 1.4× stock of enzyme from BPS Bioscience (San Diego, Ca) or Millipore (Billerica, Mass.) with di-C8-PIP2 lipid substrate (#33-005), and a 4×ATP solution (#A7699) Sigma/Aldrich (St. Louis, Mo.) were prepared in 1×reaction buffer. 15 μL of enzyme and lipid substrate mix were pre-incubated in a Corning (#3573) 384-well, black, non-treated microtiter plate (Corning, N.Y.) for 30 min at 25° C. with a 0.5 μL volume of 50% DMSO and serially diluted compounds prepared in 50%-75% DMSO. Lipid kinase reactions were started with the addition of 5 μL of ATP solution, mixed for 15 sec on a rotary plate shaker and incubated for 15-30 minutes at 25° C. Next, reactions were stopped with a 5 μL addition of Stop solution followed by a 5 μL volume of Detection Mix. Stopped reactions were equilibrated for 1 and 18 hrs at room temperature and then read in a Synergy4 plate reader from BioTek (Winooski, Vt.) at λex330-80/λem620-35 and λem665-7.5. At the conclusion of each assay, the HTRF ratio from fluorescence emission values for each well was calculated and % Inhibition determined from averaged controls wells. % Inhibition values for each compound re then plotted against inhibitor concentration to estimate IC50 from log [Inhibitor] vs Response, Variable Slope model in GraphPad Prism from GraphPad Software (San Diego, Calif.).
Reagents Used in Optimized Protocol: • [p120γ]=1-4 nM, [ATP]=50 μM, [di-C8-PIP2]=10 μM • (40625; BPS Bioscience)
A general note: TR-FRET usually uses a lanthanide donor and a delayed reading to cut background.
In general, IC50 refers to the point on the concentration scale where inhibition reaches its midpoint. In the case of `C=CC(=O)N(C)Cc1cc2nc(-c3cccc(O)c3)nc(N3CCOCC3)c2s1` [XXII-5, N-((2-(3-hydroxyphenyl)-4-morpholinothieno[3,2-d]pyrimidin-6-yl)methyl)-N-methylacrylamide], the IC50 is 100 to 1000 nM.

The same test, now with this note: p120γ; read-out: Reference Inhibitor IC50.
For the compound `Cc1ccc([N+](=O)[O-])cc1S(=O)(=O)N(C)/N=C/c1cnc2ccc(Br)cn12` [PIK75, reference compound], the IC50 was found to be 55 nM.

Values taken from US11542492B2 (Celgene CAR LLC, priority 2009, dated 2023).
